This is an account of results in patent US20220073521A1, “PYRIMIDINE AND FIVE-MEMBERED NITROGEN HETEROCYCLE DERIVATIVE, PREPARATION METHOD THEREFOR, AND MEDICAL USES THEREOF” (Tuojie Biotech (Shanghai) Co., Ltd., priority 2018, published 2022).

Structures are written as SMILES. Like-named read-outs stand apart in the source and are kept apart here. Some results are limits rather than exact numbers.

One data set relates to p-ERK in KYSE-520 cells. Nature of the data set: Determination of p-ERK in KYSE-520 cells (HTRF). Type of data set: cell-based. Particulars: Homo sapiens, KYSE-520, 2 h. As to the method: KYSE-520 cells (Nanjing Cobioer Biosciences CO., Ltd.) in the logarithmic growth phase were inoculated (30,000 cells/well) in 1640 medium containing 10% of FBS, and adhered in a 96-well plate overnight (5% CO2, 37° C.). […] The cell culture was stopped with cell lysate. The level of phosphorylated ERK in KYSE-520 cells was determined by a method based on homogeneous time-resolved fluorescence HTRF (Cisbio, 64ERKPEG). The fluorescence values (Ex337 nm/Em625/665 nm) were read on the compatible HTRF reader (MD SpectraMax).

A further data set relates to KYSE-520 cells. Description: KYSE-520 cell proliferation experiment (CellTiter-Glo, 7 days). The data set is classed as cell-based. Conditions: Homo sapiens. As to the method:
The treated cell plate was incubated at 37° C., 5% CO2 for 7 days. CellTiter-Glo (Promega, G7573) was used to determine the number of viable cells in each well of the treated plate. 100 μL of the detection reagent was added to each well, and the plate was incubated at room temperature for 10 minutes. Then, the […] in each well was measured with Envision plate reader (PerkinElmer). […] The IC50 value was further calculated as the compound concentration required for 50% proliferation inhibition in the best-fit curve with […].
In general terms: In ATP-based viability assays light output follows the ATP content of the culture.

Another data set addresses T1, hERG potassium channel (Homo sapiens, UniProt Q12809).
T1 construct: host or cells: CHO hERG cells
Nature of the data set: hERG current inhibition experiment (manual patch clamp, CHO hERG cells). Particulars: whole-cell patch clamp, tail current. Type of data set: cell-based. How it is done: In this experiment, whole-cell current recording was performed using a manual patch clamp system (HEKA EPC-10 signal amplification and digital conversion system, purchased from HEKA Electronic, Germany). The round glass slide of which surface CHO hERG cells (provided by Sophion Bioscience Inc., Denmark, the cell generation number was P21) were grown on was placed in an electrophysiological recording slot under an inverted microscope. The recording slot was continuously perfused with extracellular fluid (approximately 1 mL per minute). Conventional whole-cell patch clamp current recording technique was used in the experiment. The experiments were performed at normal room temperature (˜25° C.). The cells were clamped at a voltage of −80 mV. Cell patch clamp voltage was depolarized to +20 mV to activate hERG potassium channel, and to −50 mV after 5 seconds to eliminate inactivation and generate tail currents. The tail current peak was used as a value of hERG current. When the hERG potassium current recorded in the above steps became steady under continuous perfusion of the extracellular fluid in the recording slot, the drug to be tested could be added to the perfusion, until the inhibition effect of the drug on hERG current reached a steady state. Generally, the overlapping of most recent three consecutive current recording lines was used as a criterion to determine whether the state was stable. After reaching the steady state, the recording slot was perfused with extracellular fluid until the hERG current returned to the value before the drug adding. The test data was analyzed by HEKA Patchmaster (V2x73.2), Microsoft Excel and the data analysis software provided by Graphpad Prism 5.0.
(The hERG channel carries a current that helps repolarise heart muscle cells.)

The target of data set [1] is T2, SHP2 wild-type phosphatase (recombinantly expressed full-length SHP2, aa 1-593) (Homo sapiens, UniProt Q06124).
T2 sequence (Q06124 1-593): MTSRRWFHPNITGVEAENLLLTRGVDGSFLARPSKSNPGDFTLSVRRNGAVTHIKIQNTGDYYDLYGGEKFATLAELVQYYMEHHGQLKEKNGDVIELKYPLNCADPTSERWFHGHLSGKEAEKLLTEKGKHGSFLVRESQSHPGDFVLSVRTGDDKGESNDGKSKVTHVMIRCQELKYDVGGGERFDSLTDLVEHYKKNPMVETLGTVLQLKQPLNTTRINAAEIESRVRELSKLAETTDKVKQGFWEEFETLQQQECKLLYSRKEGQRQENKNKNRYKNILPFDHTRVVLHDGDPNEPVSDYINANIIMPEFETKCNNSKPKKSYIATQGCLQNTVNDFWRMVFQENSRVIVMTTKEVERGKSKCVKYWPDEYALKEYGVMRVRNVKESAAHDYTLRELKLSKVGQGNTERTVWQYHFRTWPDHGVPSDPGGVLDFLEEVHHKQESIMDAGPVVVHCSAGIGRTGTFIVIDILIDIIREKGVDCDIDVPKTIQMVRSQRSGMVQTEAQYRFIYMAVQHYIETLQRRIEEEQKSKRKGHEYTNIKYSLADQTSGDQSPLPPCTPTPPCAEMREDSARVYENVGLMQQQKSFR
Nature of the data set: In vitro activity on SHP2 wild-type phosphatase (DiFMUP fluorescence).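 Also: enzyme preincubated at room temperature, then DiFMUP reaction run at room temperature and halted with SDS, potency derived from a logistic curve fit.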 Particulars: wild-type full-length SHP2, activated polypeptide IRS1 0.5 nM, DiFMUP 30 μM.
Protocol: 0.2 nM recombinantly expressed full-length SHP2 (aa 1-593), 0.5 nM activated polypeptide IRS1 with double phosphorylation sites (sequence: H2N-LN(pY)IDLDLY(dPEG8)LST(pY)ASINFQK-amide) and a series of concentrations of the test compound (final concentrations were 1 μM, 0.3 μM, 0.1 μM, 0.03 μM, 0.01 μM, 0.003 μM, 0.001 μM, 0.0003 μM, 0.0001 μM, 0.00003 μM) were added to the phosphatase reaction solution (60 mM HEPES, pH 7.5 0.005% Brij-35, 75 mM NaCl, 75 mM KCl, 1 mM EDTA, 5 mM DTT). The reaction solution was shaked (350 rpm) at room temperature for 30 minutes. The reaction substrate DiFMUP with a final concentration of 30 μM was added, and the reaction solution was reacted at room temperature for 30 minutes. The phosphatase reaction was stopped by adding 5 μL of stop solution (60 mM HEPES, pH 7.5, 0.2% SDS). Ex358 nm/Em455 fluorescence value was read on the fluorescence plate reader MD SpectraMax.
The IC50 value of the compound was calculated using the four-parameter logit method. In the following formula, x represents the logarithmic form of the compound concentration, and F(x) represents the effect value (the inhibition rate of cell proliferation under the given concentration condition): F(x)=((A−D)/(1+((x/C)^B)))+D. A, B, C and D are four parameters. Different concentrations correspond to different inhibition rates, based on which an inverse curve was plotted, and the IC50 of the inhibitor was calculated from the curve. The IC50 of the compound was calculated with Primer premier 6.0.

The nature of data set [2]: Pharmacokinetics assay in rats. Type of data set: in vivo, SD rats. Conditions: rat; for AUC: read-out: Area under curve AUC; for half-life: read-out: Half-life T1/2 (converted). As to the method:
Rats were used as test animals. The drug concentration in plasma at different time points was determined by LC/MS/MS method after intravenous administration or intragastrical administration of the compound of the present invention to rats. The pharmacokinetic behavior of the compound of the present invention was studied and evaluated in rats.
The atropisomer with a RT of 1.495 minutes in Examples 3 and 4, compounds of Example 17, Example 41 and Example 43.
Healthy male SD rats (6-8 weeks old), 3 rats per group.
Intravenous administration: A certain amount of the test compound was weighed, to which 10% by volume of N,N-dimethylacetamide, 33% by volume of triethylene glycol and 57% by volume of water were added to prepare a 1 mg/mL colorless, clear and transparent solution;
Intragastrical administration: A certain amount of the test compound was weighed, to which 0.5% by mass of hypromellose, 0.1% by volume of Tween 80 and 99.4% by volume of water were added to prepare a 1 mg/mL white suspension.
After an overnight fast, the SD rats were intravenously administered the test compound at an administration dose of 1 mg/kg, or intragastrically administered the test compound at an administration dose of 5 mg/kg.
The rats were intravenously administered the compound of the present invention. 0.2 ml of blood was taken from the jugular vein at 0.083, 0.25, 0.5, 1, 2, 4, 8 and 24 hours after the administration. The samples were placed in tubes containing EDTA-K2, and centrifuged at 4000 rpm and 4° C. for 5 minutes to separate the blood plasma. The plasma samples were stored at −75° C.
Or, the rats were intragastrically administered the compound of the present invention. 0.2 ml of blood was taken from the jugular vein at 0.25, 0.5, 1, 2, 4, 8 and 24 hours after the administration. The samples were placed in tubes containing EDTA-K2, and centrifuged at 4000 rpm and 4° C. for 5 minutes to separate the blood plasma. The plasma samples were stored at −75° C.
The content of the test compound in the plasma of rat after intragastrical administration of the test compound at different concentrations was determined: 50 μL of rat plasma at each time after administration was taken, to which 200 μL of a solution (50 ng/mL) of internal standard dexamethasone in acetonitrile was added. The plasma was vortex-mixed for 30 seconds, and centrifuged at 4700 rpm and 4° C. for 15 minutes. The supernatant was taken from the plasma samples, and a three-fold dilution was carried out by adding water. 2.0 μL of the supernatant was used for LC/MS/MS analysis.

T1 sequence (Q12809 whole entry): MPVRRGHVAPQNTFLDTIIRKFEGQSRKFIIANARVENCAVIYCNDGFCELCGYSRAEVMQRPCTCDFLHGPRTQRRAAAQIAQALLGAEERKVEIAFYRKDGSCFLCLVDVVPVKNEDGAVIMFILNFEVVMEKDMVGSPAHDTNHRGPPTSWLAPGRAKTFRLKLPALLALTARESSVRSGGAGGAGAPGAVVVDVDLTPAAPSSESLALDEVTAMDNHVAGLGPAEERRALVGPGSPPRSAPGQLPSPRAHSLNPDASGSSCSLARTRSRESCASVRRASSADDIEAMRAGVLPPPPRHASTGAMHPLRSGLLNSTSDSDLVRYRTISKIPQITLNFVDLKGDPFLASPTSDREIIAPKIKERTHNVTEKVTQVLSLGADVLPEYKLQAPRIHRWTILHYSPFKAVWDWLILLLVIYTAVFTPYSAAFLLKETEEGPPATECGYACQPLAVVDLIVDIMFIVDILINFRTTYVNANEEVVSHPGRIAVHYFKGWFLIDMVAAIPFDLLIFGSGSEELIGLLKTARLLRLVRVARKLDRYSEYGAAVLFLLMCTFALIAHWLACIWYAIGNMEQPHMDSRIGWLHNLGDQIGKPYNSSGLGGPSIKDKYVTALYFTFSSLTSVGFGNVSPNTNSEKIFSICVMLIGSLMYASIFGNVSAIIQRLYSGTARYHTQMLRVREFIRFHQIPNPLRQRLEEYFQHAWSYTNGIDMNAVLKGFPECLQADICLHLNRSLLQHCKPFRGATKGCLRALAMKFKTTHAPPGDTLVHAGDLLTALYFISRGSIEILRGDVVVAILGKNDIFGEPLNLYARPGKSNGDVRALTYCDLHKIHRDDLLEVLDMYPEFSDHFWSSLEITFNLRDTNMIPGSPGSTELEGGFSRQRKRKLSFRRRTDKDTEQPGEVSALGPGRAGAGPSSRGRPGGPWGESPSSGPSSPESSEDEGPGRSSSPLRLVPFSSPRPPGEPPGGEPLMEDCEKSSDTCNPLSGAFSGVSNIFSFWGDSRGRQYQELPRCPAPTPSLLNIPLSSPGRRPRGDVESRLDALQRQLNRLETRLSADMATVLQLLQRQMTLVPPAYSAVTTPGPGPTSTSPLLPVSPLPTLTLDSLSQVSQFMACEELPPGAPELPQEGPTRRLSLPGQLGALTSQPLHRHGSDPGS

Broadly, the IC50 is the concentration that gives 50% inhibition. Consider `C[C@@H]1OCC2(CCN(c3nc(N)c(Sc4cccnc4C(F)(F)F)c4nccn34)CC2)[C@@H]1N` [Example 24, (3S,4S)-8-(7-Amino-8-((2-(trifluoromethyl)pyridin-3-yl)thio)imidazo[1,2-c]pyrimidin-5-yl)-3-methyl-2-oxa-8-azaspiro[4.5]decan-4-amine], for which the IC50 in the data set with p-ERK in KYSE-520 cells was 11 nM; in the data set with KYSE-520 cells it was 75.9 nM; on hERG potassium channel, > 30000 nM; in data set [1], 4.4 nM.

As to `N[C@@H]1c2cccnc2CC12CCN(c1ncc(Sc3ccnc(NC4CC4)c3Cl)c3nccn13)CC2` [Example 36, (S)-1′-(8-((3-Chloro-2-(cyclopropylamino)pyridin-4-yl)thio)imidazo[1,2-c]pyrimidin-5-yl)-5,7-dihydrospiro[cyclopenta[b]pyridine-6,4′-piperidin]-5-amine], the IC50 in the data set with p-ERK in KYSE-520 cells is 8 nM; with KYSE-520 cells it was 40.5 nM; at hERG potassium channel, 3970 nM; in data set [1] it was 2.6 nM.

On to `Cc1nc(N2CCC3(CC2)Cc2ncccc2[C@H]3N)n2ccnc2c1Sc1ccnc(N)c1Cl` [Example 42, (S)-1′-(8-((2-Amino-3-chloropyridin-4-yl)thio)-7-methylimidazo[1,2-c]pyrimidin-5-yl)-5,7-dihydrospiro[cyclopenta[b]pyridine-6,4′-piperidin]-5-amine], for which the concentration for half-maximal inhibition (IC50) with p-ERK in KYSE-520 cells was 20.2 nM; in the data set on KYSE-520 cells, 65.1 nM; on hERG potassium channel it was > 30000 nM; in data set [1], 1.9 nM.

As usually defined, the AUC is concentration integrated over time. One may read the clearance as the volume of plasma or blood freed of the substance per unit of time. Usually bioavailability stands for dose-corrected exposure relative to a reference, in per cent. Turning to `C[C@@H]1OCC2(CCN(c3ncc(Sc4cccnc4C(F)(F)F)c4nccn34)CC2)[C@@H]1N` [Example 17, (3S,4S)-3-Methyl-8-(8-((2-(trifluoromethyl)pyridin-3-yl)thio)imidazo[1,2-c]pyrimidin-5-yl)-2-oxa-8-azaspiro[4.5]decan-4-amine], the IC50 with p-ERK in KYSE-520 cells was determined as 32.3 nM; in the data set on KYSE-520 cells, 179 nM; on hERG potassium channel, 12300 nM; in data set [1] it was 4.2 nM. Moreover, the AUC in data set [2] (male, SD, plasma, IV 1 mg/kg) turned out to be 764 ± 196 ng·h/mL; in data set [2] (male, SD, plasma, PO 5 mg/kg), 3210 ± 351 ng·h/mL. Moreover, the clearance in data set [2] (male, SD, plasma, IV 1 mg/kg, read-out: Clearance CL_obs) was 21.5 ± 5.2 mL/min/kg. Also, the half-life in data set [2] (male, SD, plasma, IV 1 mg/kg) was 2.83 ± 0.93 h; in data set [2] (male, SD, plasma, PO 5 mg/kg) it was 3.42 ± 0.37 h. For the same compound, the bioavailability in data set [2] (male, SD, plasma, PO 5 mg/kg vs IV 1 mg/kg, read-out: Bioavailability F) turned out to be 80.3 ± 8.5%. Also, the Cmax in data set [2] (male, SD, plasma, PO 5 mg/kg, read-out: Maximum plasma concentration Cmax) was 408 ± 77 ng/mL. In addition, the “Apparent distribution volume Vss_obs” value in data set [2] (IV 1 mg/kg) was 3.8 ± 0.1 L/kg.

Consider `Cc1nc(N2CCC3(CC2)CO[C@@H](C)[C@H]3N)n2ccnc2c1-c1cccc(Cl)c1Cl` [Example 2, (3S,4S)-8-(8-(2,3-Dichlorophenyl)-7-methylimidazo[1,2-c]pyrimidin-5-yl)-3-methyl-2-oxa-8-azaspiro[4.5]decan-4-amine], for which the IC50 in the data set on p-ERK in KYSE-520 cells was determined as 40.5 nM; with KYSE-520 cells it was 186 nM; against hERG potassium channel it was 2610 nM; in data set [1], 1.1 nM.

For `Cc1nc(N2CCC3(CC2)CO[C@@H](C)[C@H]3N)n2cnnc2c1-c1cccc(Cl)c1Cl` [Example 9, (3S,4S)-8-(8-(2,3-Dichlorophenyl)-7-methyl-[1,2,4]triazolo[4,3-c]pyrimidin-5-yl)-3-methyl-2-oxa-8-azaspiro[4.5]decan-4-amine], the IC50 is 285 nM in the data set on p-ERK in KYSE-520 cells, 785 nM in the data set with KYSE-520 cells, 1910 nM against hERG potassium channel and 3.2 nM in data set [1].

Take `Cc1nc(N2CCC3(CCC[C@H]3N)CC2)n2ccnc2c1-c1cccc(Cl)c1Cl` [Example 1, (R)-8-(8-(2,3-Dichlorophenyl)-7-methylimidazo[1,2-c]pyrimidin-5-yl)-8-azaspiro[4.5]decan-1-amine]: the IC50 was 383 nM in the data set on p-ERK in KYSE-520 cells, 723 nM with KYSE-520 cells, 2130 nM on hERG potassium channel and 4.5 nM in data set [1].
